The values below come from US20200247812A1 (Integral Biosciences Private Limited, priority 2018, published 2020).

The target of test [1] is T1, ALK 5 (Homo sapiens, UniProt P36897).
T1 sequence (P36897 34-503): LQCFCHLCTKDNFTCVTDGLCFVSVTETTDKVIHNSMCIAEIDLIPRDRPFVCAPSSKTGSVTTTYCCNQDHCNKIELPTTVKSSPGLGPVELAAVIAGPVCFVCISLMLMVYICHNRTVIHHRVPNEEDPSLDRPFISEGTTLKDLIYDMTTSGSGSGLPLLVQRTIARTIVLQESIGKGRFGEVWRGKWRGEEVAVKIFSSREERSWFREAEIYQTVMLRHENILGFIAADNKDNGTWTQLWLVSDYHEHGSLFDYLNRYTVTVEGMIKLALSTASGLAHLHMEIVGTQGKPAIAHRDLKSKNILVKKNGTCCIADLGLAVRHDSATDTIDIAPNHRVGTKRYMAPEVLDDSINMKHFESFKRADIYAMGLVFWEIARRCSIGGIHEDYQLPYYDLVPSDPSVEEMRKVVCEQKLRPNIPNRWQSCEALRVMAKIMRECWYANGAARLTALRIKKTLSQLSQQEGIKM
Put plainly: In vitro kinase assay (ALK5 IC50, LanthaScreen Terbium labeled TR-FRET). It is filed as biochemical. The note with it: TGF-β kinase 6 nM, ATP 10 μM, read-out: Enzyme Activity ALK 5 IC50. In outline:
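LanthaScreen Tb TR-FRET: ALK5 (6 nM) preincubated 10 min with 3-fold diluted compounds, then 10 μM ATP and 200 nM fluorescent PolyGT substrate added for 1 h at room temperature. Stopped with EDTA/Tb antibody; 520/495 nm emission read. IC50 from four-parameter fit versus DMSO and no-enzyme controls.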
On the technique in general: TR-FRET usually uses a lanthanide donor and a delayed reading to cut background.

Test [2] deals with MiaPaCa-2. The experiment in a line: Cell viability assay (resazurin), MiaPaCa-2. In kind it is cell-based. The note with it: Homo sapiens, MIA PaCa-2, 72-144 hr. The protocol:
Different cell lines such as pancreatic, (MIA PaCa-2; ATCC®CRL-1420™ & and Panc-1; CRL-1469™), liver carcinoma (HepG2; ATCC® HB-8065™), lung epithelial carcinoma (A549; ATCC® CCL-185™) and others were seeded in their respective medium (DMEM, Cat #10569044, MEM, Cat #41090036; RPMI, Cat #22400089; all with 10% FBS, Gibco, ThermoFisher) at a cell count of 3000 cells per 100 μl per well in a 96 well edge plate (167425; ThermoFisher). Cells were allowed to grow at 37° C. for 24 hr in 5% CO2 (culture conditions) in a Nuaire incubator (humidified). Serially diluted compounds (100 μl) were added to the culture plate 24 hr later and the cultures were further incubated in culture conditions for specified time depending on doubling time of specific cell line (ranging from 72-144 hr). […] Fluorescence was then measured using a multimodal plate reader (Biotek Synergy Neo) at an excitation wavelength of 535 nm and emission wavelength of 590 nm to obtain relative fluorescence units. Data analysis was done by subtracting the background fluorescence (only medium blank) value from each reading and then normalizing with the vehicle control (DMSO treated cells) to obtain percent survival/proliferation. […]

The subject of test [3] is 22Rv1. The experiment in a line: Cell viability assay (resazurin), 22Rv1. In kind it is cell-based. The note with it: Homo sapiens, 72-144 hr. The protocol:
(§1) Different cell lines such as pancreatic, (MIA PaCa-2; ATCC®CRL-1420™ & and Panc-1; CRL-1469™), liver carcinoma (HepG2; ATCC® HB-8065™), lung epithelial carcinoma (A549; ATCC® CCL-185™) and others were seeded in their respective medium (DMEM, Cat #10569044, MEM, Cat #41090036; RPMI, Cat #22400089; all with 10% FBS, Gibco, ThermoFisher) at a cell count of 3000 cells per 100 μl per well in a 96 well edge plate (167425; ThermoFisher). Cells were allowed to grow at 37° C. for 24 hr in 5% CO2 (culture conditions) in a Nuaire incubator (humidified). Serially diluted compounds (100 μl) were added to the culture plate 24 hr later and the cultures were further incubated in culture conditions for specified time depending on doubling time of specific cell line (ranging from 72-144 hr). Experiment was terminated at the completion of incubation time with the drug by replacing the medium with 100 μl of 1 mM of resazurin (R7017; Sigma) prepared in respective culture medium and the plates were further incubated in culture conditions for 4 hr. Fluorescence was then measured using a multimodal plate reader (Biotek Synergy Neo) at an excitation wavelength of 535 nm and emission wavelength of 590 nm to obtain relative fluorescence units. Data analysis was done by subtracting the background fluorescence (only medium blank) value from each reading and then normalizing with the vehicle control (DMSO treated cells) to obtain percent survival/proliferation. Percent survival at different doses was used to calculate IC50 by fitting the curve to the “four-parameter variable slope logistic model” using Prism Graph Pad.

For test [4], the system named is AsPC-1. Put plainly: Cell viability assay (resazurin), AsPC-1. In kind it is cell-based. The note with it: Homo sapiens, ASPC1, 72-144 hr. The procedure:
as §1
(In general: Resazurin is reduced to fluorescent resorufin, in cell work by metabolically active cells.)

Test [5] deals with MCF7. Put plainly: Cell viability assay (resazurin), MCF7. In kind it is cell-based. The note with it: Homo sapiens, 72-144 hr. The protocol:
as §1

Test [6] relates to Panc-10.05. The experiment in a line: Cell viability assay (resazurin), Panc-10.05. In kind it is cell-based. Conditions: Homo sapiens, Panc1005, 72-144 hr. The procedure: as §1
The subject of test [7] is mouse splenocytes. Put plainly: Mouse splenocyte viability assay (CD3e/CD28 activated, resazurin). It is filed as cell-based. Conditions: CD3e/CD28 activated Balb/c splenocytes, 72 hr. The protocol:
IC50 values of compounds for determining viability in CD3e/CD28 activated mouse splenocytes isolated from Balb/c mice cultured in RPMI, Cat #22400089; with 10% FBS, Gibco, ThermoFisher). Mouse splenocytes (2×10^5 cells/well) were activated with Anti-mouse CD3e (2.5 μg/ml, coated overnight at 4° C.; Cat #14-0032-82, eBioscience) and then incubated with serial dilutions of compounds (3 fold, 8 point dose response starting at 30 μM) for 30 min at 37° C., 5% CO2 in an incubator (cell culture conditions) prior to treating them with Anti-mouse CD28 (0.1 μg/ml soluble; Cat #16-0281-82, eBiosciences). Splenocytes were further incubated under cell culture conditions for 72 hr following which experiment was terminated by replacing the medium with 100 μl of 1 mM of resazurin (R7017; Sigma) prepared in respective culture medium and the plates were further incubated in culture conditions for 4 hr. Fluorescence was then measured using a multimodal plate reader (Biotek Synergy Neo) at an excitation wavelength of 535 nm and emission wavelength of 590 nm to obtain relative fluorescence units. Data analysis was done by subtracting the background fluorescence (only medium blank) value from each reading and then normalizing with the average of vehicle control (DMSO treated cells) to obtain percent survival/proliferation. […]

In general, IC50 refers to the concentration that inhibits the measured activity by half. With `CC(=O)Nc1cc(Nc2cc(-c3cc(Cl)ccc3F)c(=O)[nH]c2C(C)C)ccn1` [Compound 1.48, N-(4-((5-(5-chloro-2-fluorophenyl)-2-isopropyl-6-oxo-1,6-dihydropyridin-3-yl)amino)pyridin-2-yl)acetamide], the IC50 in test [1] was no more than 500 nM; in test [2], greater than 30 µM; in test [3], greater than 30 µM; in test [4], greater than 30 µM; in test [5], greater than 10 µM; in test [6], greater than 30 µM. Also, the IC50 in test [7] is greater than 30 µM.

For the molecule `CC(C)c1[nH]c(=O)c(-c2cc(Cl)ccc2F)cc1Nc1ccnc2[nH]ccc12` [Compound 1.50, 5-((1H-pyrrolo[2,3-b]pyridin-4-yl)amino)-3-(5-chloro-2-fluorophenyl)-6-isopropylpyridin-2(1H)-one], the IC50 in test [1] was no more than 500 nM; in test [2] it was greater than 30 µM; in test [5], greater than 10 µM; in test [6] it was 4.72 µM; in test [7], greater than 30 µM.
